The values that follow come from patent publication US6649763B1, “Optically active quinoline carboxylic acid derivatives with 7-pyrrolidine substituents causing optical activity and a process for the preparation thereof” (Dong Wha Pharm. Ind. Co., Ltd., priority 1999, dated 2003).

The structures appear in SMILES notation.

Series [1] concerns Staphylococcus aureus 208E. Description: Antibacterial activity in vitro (MIC, agar dilution). Particulars: resistant strain Staphylococcus aureus 208E. The class given is cell-based. Here is the method: (§1) The optically active quinoline carboxylic acid derivatives of the present invention were tested as to whether they could be useful as antibacterial compounds. In this regard, the compounds were measured for minimum inhibitory concentration (MIC: unit μg/ml) according to an agar dilution process (Hoechst 345) in which Muller-Hinton agars were diluted two fold. For comparison, ciprofloxacin and sparfloxacin were used as controls. Corresponding enantiomers and racemates of the compounds of interest were also used as comparative ones. Bacteria were inoculated at an amount of about 10^7 cfu/ml onto each agar. 18 hours after the inoculation at 37° C., the growth of the bacteria was observed. As to methicillin-resistant strains, their growth was observed 48 hours after the inoculation at […]. Hoechst standard strains were used as the test bacteria.
In general terms: Agar dilution tests growth on a series of plates holding different concentrations.

The subject of series [2] is Staphylococcus aureus 241. The series is described as above. The format is cell-based. As to conditions: resistant strain Staphylococcus aureus 241. The protocol: as §1
For series [3], the system named is Staphylococcus aureus 293. Described as above. The format is cell-based. Particulars: resistant strain Staphylococcus aureus 293. The protocol: as §1
The subject of series [4] is Staphylococcus aureus 303. The series is described as above. The format is cell-based. As to conditions: resistant strain Staphylococcus aureus 303. Here is the method:
as §1

For series [5], the system named is Staphylococcus aureus 693E. Described as above. The format is cell-based. Particulars: resistant strain Staphylococcus aureus 693E. Here is the method:
as §1

The test system of series [6] is Staphylococcus aureus 179. The series is described as above. As to conditions: resistant strain Staphylococcus aureus 179. The class given is cell-based. The protocol: as §1
The subject of series [7] is Staphylococcus epidermidis 329. Described as above. Particulars: resistant strain Staphylococcus epidermidis 329. The class given is cell-based. Here is the method: as §1
Series [8] deals with Staphylococcus aureus 692E. The description is as above. The format is cell-based. Particulars: resistant strain Staphylococcus aureus 692E. The protocol:
as §1

Series [9] concerns Staphylococcus epidermidis 319. The series is described as above. The format is cell-based. Particulars: resistant strain Staphylococcus epidermidis 319. Here is the method:
as §1

Series [10] relates to Staphylococcus aureus 88E. The description is as above. The class given is cell-based. Particulars: resistant strain Staphylococcus aureus 88E. Here is the method:
as §1

Series [11] relates to Staphylococcus aureus 690E. The description is as above. The class given is cell-based. As to conditions: resistant strain Staphylococcus aureus 690E. The protocol: as §1
In series [12] the test system is Staphylococcus aureus 256E. Described as above. As to conditions: resistant strain Staphylococcus aureus 256E. The format is cell-based. Here is the method:
as §1

Series [13] deals with Staphylococcus aureus 121E. Described as above. As to conditions: resistant strain Staphylococcus aureus 121E. The class given is cell-based. Here is the method: as §1
A short description of another series: Phototoxicity test. Particulars: CD-1 female mice, oral 50 mg/kg; for Thickness of mice's ears after UV exposure, After 24 hr / Thickness of mice's ears after UV exposure, After 48 hr: UVA light source; for Thickness of mice's ears after UV exposure, After 24 hr / Thickness of mice's ears after UV exposure, After 48 hr / Thickness of mice's ears, Before UV exposure: 50 mg/kg; for edema and erythema observed after UV exposure / increase in ear thickness compared with before the UV exposure: after 48 hours of the UV exposure; for Thickness of mice's ears, Before UV exposure: baseline before UVA. The format is in vivo. The protocol:
It is known that the presence of a halogen atom at the 8-position of the quinolone nuclei causes phototoxicity.
After 16 hours of starvation, CD-1 female mice were orally administered with a dose of 50 mg/kg of the compounds and allowed to be exposed for 4.5 hours to a UVA light source. The mice were located 15 cm away from the light source. Whether the mice were damaged in their ears was adopted as a main factor for the phototoxicity and determined after 24 hour and 48 hour UV exposure. The edema which the mice suffered were examined by measuring the thickness changes of their ears with the aid of electronic calipers and calculating average values. Also, an observation was made as to whether the mice suffered from erythema.

Where [14] appears, read: listed as Racemic mixture of Example 14 compound.
Setting [15] is: listed as racemate of the compound of Example 14, 50 mg/kg.
Setting [16] is: listed as enantiomer of the compound of Example 14, 50 mg/kg.

On to `CO/N=C1\CN(c2nc3c(cc2F)c(=O)c(C(=O)O)cn3C2CC2)CC1(C)CN.Cl` (racemic) [Racemate of Example 9 Compound], for which the “minimum inhibitory concentration (MIC)” value in series [1] was 0.007 µg/mL; in series [2] it was 0.195 µg/mL; in series [3], 0.195 µg/mL; in [4] it was 0.195 µg/mL; in series [5], 0.007 µg/mL; in series [6] it was 0.195 µg/mL. Further, the “minimum inhibitory concentration (MIC)” value is 0.781 µg/mL in series [7]; less than 0.002 µg/mL in [8]; 0.391 µg/mL in series [9]; 0.007 µg/mL in series [10]; 0.004 µg/mL in [11]; 0.007 µg/mL in series [12]. The “minimum inhibitory concentration (MIC)” value in series [13] stood at 0.007 µg/mL.
As for `CO/N=C1\CN(c2c(F)c(N)c3c(=O)c(C(=O)O)cn(C4CC4)c3c2F)CC1(C)CN.Cl` (racemic) [Racemate of Example 14 Compound], the “minimum inhibitory concentration (MIC)” value in [1] is less than 0.002 µg/mL; in series [2], 0.025 µg/mL; in series [3] it was 0.025 µg/mL; in series [4], 0.025 µg/mL; in series [5], less than 0.002 µg/mL; in [6] it was 0.025 µg/mL. For the same compound, the “minimum inhibitory concentration (MIC)” value was 0.098 µg/mL in series [7]; less than 0.002 µg/mL in series [8]; 0.049 µg/mL in series [9]; less than 0.002 µg/mL in [10]; less than 0.002 µg/mL in series [11]; less than 0.002 µg/mL in [12]. In addition, the “minimum inhibitory concentration (MIC)” value in series [13] is less than 0.002 µg/mL. For the same compound, the “Thickness of mice's ears after UV exposure, After 24 hr” value in the series “Phototoxicity test” (setting [14]) turned out to be 23.5 ± 1.31. Moreover, the “Thickness of mice's ears after UV exposure, After 48 hr” value in the series “Phototoxicity test” (setting [14]) stood at 24.4 ± 2.33. For the same compound, the “edema and erythema observed after UV exposure” value in the series “Phototoxicity test” (setting [15]) was “moderate edema and erythema”. In addition, the “increase in ear thickness compared with before the UV exposure” value in “Phototoxicity test” (setting [15]) is 39%. Further, the “Thickness of mice's ears, Before UV exposure” value in “Phototoxicity test” (setting [14]) stood at 17.6 ± 0.52.
Take `CO/N=C1\CN(c2cc3c(cc2F)c(=O)c(C(=O)O)cn3C2CC2)CC1(C)CN.Cl` (racemic) [Racemate of Example 19 Compound]: the “minimum inhibitory concentration (MIC)” value in series [1] is 0.013 µg/mL; in [2] it was 0.391 µg/mL; in series [3] it was 0.391 µg/mL; in series [4], 0.391 µg/mL; in series [5], 0.013 µg/mL; in series [6], 0.391 µg/mL. Moreover, the “minimum inhibitory concentration (MIC)” value is 0.781 µg/mL in [7]; 0.013 µg/mL in series [8]; 0.781 µg/mL in series [9]; 0.013 µg/mL in series [10]; 0.007 µg/mL in [11]; 0.013 µg/mL in [12]. Moreover, the “minimum inhibitory concentration (MIC)” value in series [13] came out at 0.013 µg/mL.
In the case of `CO/N=C1\CN(c2nc3c(cc2F)c(=O)c(C(=O)O)cn3C2CC2)CC1(C)CN.Cl` (single isomer, unassigned) [Enantiomer of Example 9 Compound], the “minimum inhibitory concentration (MIC)” value in [1] is 0.049 µg/mL; in series [2] it was 1.563 µg/mL; in [3], 1.563 µg/mL; in [4], 0.781 µg/mL; in series [5], 0.025 µg/mL; in series [6], 1.563 µg/mL. The “minimum inhibitory concentration (MIC)” value in series [7] turned out to be 12.500 µg/mL; in series [8] it was 0.025 µg/mL; in series [9] it was 6.250 µg/mL; in [10], 0.025 µg/mL; in series [11], 0.025 µg/mL; in [12], 0.025 µg/mL. Moreover, the “minimum inhibitory concentration (MIC)” value in series [13] was 0.049 µg/mL.
`CO/N=C1\CN(c2c(F)c(N)c3c(=O)c(C(=O)O)cn(C4CC4)c3c2F)CC1(C)CN.Cl` (single isomer, unassigned) [Enantiomer of Example 14 Compound]: the “minimum inhibitory concentration (MIC)” value in series [1] turned out to be 0.013 µg/mL; in [2], 0.195 µg/mL; in series [3], 0.195 µg/mL; in series [4] it was 0.195 µg/mL; in [5], 0.004 µg/mL; in series [6] it was 0.195 µg/mL. Further, the “minimum inhibitory concentration (MIC)” value was 1.563 µg/mL in series [7]; 0.004 µg/mL in [8]; 0.781 µg/mL in series [9]; 0.007 µg/mL in series [10]; 0.004 µg/mL in [11]; 0.013 µg/mL in series [12]. The “minimum inhibitory concentration (MIC)” value in series [13] is 0.013 µg/mL. Also, in the series “Phototoxicity test”, the “Thickness of mice's ears after UV exposure, After 24 hr” value came to 36.3 ± 3.01. The “Thickness of mice's ears after UV exposure, After 48 hr” value in “Phototoxicity test” is reported as 44.5 ± 4.0. In “Phototoxicity test” (setting [16]), the “edema and erythema observed after UV exposure” value was “serious edema and erythema”. Further, in “Phototoxicity test” (setting [16]), the “increase in ear thickness compared with before the UV exposure” value is recorded as 150%. Also, the “Thickness of mice's ears, Before UV exposure” value in “Phototoxicity test” is listed as 17.8 ± 0.89.
Turning to `CO/N=C1\CN(c2cc3c(cc2F)c(=O)c(C(=O)O)cn3C2CC2)CC1(C)CN.Cl` (single isomer, unassigned) [Enantiomer of Example 19 Compound], the “minimum inhibitory concentration (MIC)” value worked out at 0.098 µg/mL in series [1]; 3.125 µg/mL in series [2]; 3.125 µg/mL in series [3]; 3.125 µg/mL in series [4]; 0.098 µg/mL in series [5]; 3.125 µg/mL in series [6]. Besides, the “minimum inhibitory concentration (MIC)” value in series [7] was 12.500 µg/mL; in series [8], 0.049 µg/mL; in series [9], 12.500 µg/mL; in [10], 0.098 µg/mL; in series [11], 0.049 µg/mL; in [12], 0.098 µg/mL. Moreover, the “minimum inhibitory concentration (MIC)” value in series [13] came out at 0.098 µg/mL.
